These compounds were tested against Recombinant full length human PFKFB3 (Homo sapiens, UniProt Q16875) (assay: PFKFB3 kinase activity assay (ADP production, ADP-Glo)).
Sequence of Recombinant full length human PFKFB3 (Q16875 whole entry): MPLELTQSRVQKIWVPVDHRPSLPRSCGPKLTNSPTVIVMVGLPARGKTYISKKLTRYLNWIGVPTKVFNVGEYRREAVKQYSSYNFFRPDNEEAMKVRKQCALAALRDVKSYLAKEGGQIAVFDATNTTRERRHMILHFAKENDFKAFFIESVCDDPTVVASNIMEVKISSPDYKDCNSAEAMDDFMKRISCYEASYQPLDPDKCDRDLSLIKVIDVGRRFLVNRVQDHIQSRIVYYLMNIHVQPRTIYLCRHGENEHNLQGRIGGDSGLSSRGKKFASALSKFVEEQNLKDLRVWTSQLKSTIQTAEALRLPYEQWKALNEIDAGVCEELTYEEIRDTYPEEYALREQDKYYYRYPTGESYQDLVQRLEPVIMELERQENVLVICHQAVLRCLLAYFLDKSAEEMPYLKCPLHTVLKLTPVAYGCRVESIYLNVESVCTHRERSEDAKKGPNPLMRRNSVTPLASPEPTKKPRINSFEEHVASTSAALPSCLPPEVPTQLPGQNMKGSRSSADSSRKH
Description: Recombinant full length human PFKFB3 (or PFKFB4) protein purified from Sf9 baculoviral system was acquired from SignalChem (Cat. #P323-30G or P324-30G). ATP, Fructose-6-Phosphate and other chemicals were from Sigma-Aldrich. The kinase activity of the PFKFB3 (PFKFB4) protein was detected by measuring production of ADP from ATP in the presence of the Fructose-6-Phosphate substrate. The kinase reactions were assembled in 384 well plates in a total volume of 25 μL. Test compounds were serially diluted in DMSO. Reactions were set up by first mixing test compounds with enzyme and pre-incubating for 15 min. The ATP and Fructose-6-Phosphate substrates were next added to initiate the kinase reactions.
The compounds of invention listed below in this example were tested at various concentrations (which also added 1% DMSO from compounds, to the final solution) as described below. The kinase reactions were allowed to proceed for 1 h at room temperature. Aliquots of the reaction mixtures (5 μL) were transferred to fresh white 384 well plates and mixed with 5 μL of the ADP-Glo reagent (Promega), followed by incubation for 30 min. The luminescent Kinase Detection reagent was added (10 μL) and, following additional incubation for 15 min, the plates were read on luminescence plate reader (Analyst HT). Positive (100%-inhibition) and negative (0%-inhibition) control samples were assembled in each assay plate and were used to calculate percent inhibition values of test compounds. All experiments were performed in duplicate.
`NC(COC(=O)c1ccc(-c2ccccc2)cc1N1C(=O)c2ccc(-c3c[nH]nn3)cc2C1=O)C(=O)O` (stereo in doubt) [Compound 73, 3-[1,3-Dioxo-5-(1H-[1,2,3]triazol-4-yl)-1,3-dihydroisoindol-2-yl]biphenyl-4-carboxylic acid (2S)-2-amino-2-carboxy-ethyl ester] gave an IC50 of 2 to 5 µM.
`O=C(OCCN1CCCC1)c1ccc(-c2ccccc2)cc1N1C(=O)c2ccc(-c3c[nH]nn3)cc2C1=O` [Compound 68, 3-[1,3-Dioxo-5-(1H-[1,2,3]triazol-4-yl)-1,3-dihydroisoindol-2-yl]biphenyl-4-carboxylic acid 2-pyrrolidin-1-yl-ethyl ester] was tested, and the IC50 was 2 to 5 µM.
`COCCOC(=O)c1ccc(-c2ccccc2)cc1N1C(=O)c2ccc(-c3c[nH]nn3)cc2C1=O` [Compound 69, 3-[1,3-Dioxo-5-(1H-[1,2,3]triazol-4-yl)-1,3-dihydroisoindol-2-yl]biphenyl-4-carboxylic acid 2-methoxy-ethyl ester] was tested, and the IC50 was 2 to 5 µM.
Compound `O=C(OCC(O)CO)c1ccc(-c2ccccc2)cc1N1C(=O)c2ccc(-c3c[nH]nn3)cc2C1=O` (centres unmarked) [Compound 70, 3-[1,3-Dioxo-5-(1H-[1,2,3]triazol-4-yl)-1,3-dihydroisoindol-2-yl]biphenyl-4-carboxylic acid 2,3-dihydroxy-propyl ester] has an IC50 of 5 to 20 µM.
`O=C(O)c1cc(-c2cn[nH]c2)ccc1N1C(=O)c2ccc(-c3c[nH]nn3)cc2C1=O` [Compound 71, 2-[1,3-Dioxo-5-(1H-[1,2,3]triazol-4-yl)-1,3-dihydroisoindol-2-yl]-5-(1H-pyrazol-4-yl)-benzoic Acid] showed an IC50 of 0.5 to 2 µM.
Compound `NCCOC(=O)c1ccc(-c2ccccc2)cc1N1C(=O)c2ccc(-c3c[nH]nn3)cc2C1=O` [Compound 72, 3-[1,3-Dioxo-5-(1H-[1,2,3]triazol-4-yl)-1,3-dihydroisoindol-2-yl]biphenyl-4-carboxylic Acid 2-amino-ethyl ester] has an IC50 of under 20 µM.
In the case of `CC(C)[C@H](N)C(=O)OCCOC(=O)c1ccc(-c2ccccc2)cc1N1C(=O)c2ccc(-c3c[nH]nn3)cc2C1=O` [Compound 74, 3-[1,3-Dioxo-5-(1H-[1,2,3]triazol-4-yl)-1,3-dihydroisoindol-2-yl]biphenyl-4-carboxylic acid 2-{[(2S)-2-amino-3-methylbutanoyl]oxy}ethyl ester], the IC50 is reported as under 20 µM.
With `O=C(O)c1ccc2c(c1)C(=O)N(c1ccc(-c3c[nH]cn3)cc1C(=O)O)C2=O` [Compound 75, 2-[2-Carboxy-4-(1H-imidazol-4-yl)-phenyl]-1,3-dioxo-2,3-dihydro-1H-isoindole-5-carboxylic Acid] the IC50 was under 0.5 µM.
Work on `Cn1cncc1-c1ccc(N2C(=O)c3ccc(C(=O)O)cc3C2=O)c(C(=O)O)c1` [Compound 76, 2-[2-Carboxy-4-(3-methyl-3H-imidazol-4-yl)-phenyl]-1,3-dioxo-2,3-dihydro-1H-isoindole-5-carboxylic Acid] yielded an IC50 of under 0.5 µM.
With `CNCCOC(=O)c1cc(-c2c[nH]cn2)ccc1N1C(=O)c2ccc(C(=O)O)cc2C1=O` [Compound 77, 2-[4-(1H-Imidazol-4-yl)-2-(2-methylaminoethoxycarbonyl)-phenyl]-1,3-dioxo-2,3-dihydro-1H-isoindole-5-carboxylic Acid] the IC50 was 0.5 to 2 µM.
`CN(C)CCOC(=O)c1cc(-c2ccccc2)ccc1N1C(=O)c2ccc(-c3c[nH]nn3)cc2C1=O` [Compound 78, 4-[1,3-Dioxo-5-(1H-[1,2,3]triazol-4-yl)-1,3-dihydroisoindol-2-yl]biphenyl-3-carboxylic acid 2-dimethylamino-ethyl ester] was tested, and the IC50 was 5 to 20 µM.
Work on `O=C(OCCN1CCCC1)c1cc(-c2ccccc2)ccc1N1C(=O)c2ccc(-c3c[nH]nn3)cc2C1=O` [Compound 79, 4-[1,3-Dioxo-5-(1H-[1,2,3]triazol-4-yl)-1,3-dihydroisoindol-2-yl]biphenyl-3-carboxylic acid 2-pyrrolidin-1-yl-ethyl ester] yielded an IC50 of 5 to 20 µM.
Work on `O=C(OCCN1CCOCC1)c1cc(-c2ccccc2)ccc1N1C(=O)c2ccc(-c3c[nH]nn3)cc2C1=O` [Compound 80, 4-[1,3-Dioxo-5-(1H-[1,2,3]triazol-4-yl)-1,3-dihydroisoindol-2-yl]biphenyl-3-carboxylic acid 2-morpholin-4-yl-ethyl ester] yielded an IC50 of under 20 µM.
With `CNCCOC(=O)c1cc(-c2ccccc2)ccc1N1C(=O)c2ccc(-c3c[nH]nn3)cc2C1=O` [Compound 81, 4-[1,3-Dioxo-5-(1H-[1,2,3]triazol-4-yl)-1,3-dihydroisoindol-2-yl]biphenyl-3-carboxylic acid 2-methylamino-ethyl ester] the IC50 was under 20 µM.
`O=C1c2ccc(-c3c[nH]nn3)cc2C(=O)N1c1cc(-c2ccccc2)cnc1O` [Compound 83, 2-(2-Hydroxy-5-phenylpyridin-3-yl)-5-(1H-[1,2,3]triazol-4-yl)-isoindole-1,3-dione] showed an IC50 of 2 to 5 µM.
For `O=C1c2ccc(-c3c[nH]nn3)cc2C(=O)N1c1cc(-c2ccccc2)ccn1` [Compound 84, 2-(4-Phenylpyridin-2-yl)-5-(1H-[1,2,3]triazol-4-yl)-isoindole-1,3-dione], the IC50 was 5 to 20 µM.
In the case of `O=C1c2ccc(-c3c[nH]nn3)cc2C(=O)N1c1cc(-c2ccccc2)cc[n+]1[O-]` [Compound 85, 2-{1,3-Dioxo-5-(1H-[1,2,3]triazol-4-yl)-2,3-dihydro-1H-isoindol-2-yl}-4-phenylpyridine N-oxide], the IC50 is reported as 5 to 20 µM.
`O=C1c2ccc(-c3c[nH]nn3)cc2C(=O)N1c1ccc(-c2ccccc2)cn1` [Compound 86, 2-(5-Phenylpyridin-2-yl)-5-(1H-[1,2,3]triazol-4-yl)-isoindole-1,3-dione] showed an IC50 of under 20 µM.
Compound `O=C1c2ccc(-c3c[nH]nn3)cc2C(=O)N1c1cc(-c2ccc(F)cc2)ccn1` [Compound 87, 2-[4-(4-Fluorophenyl)-pyridin-2-yl]-5-(1H-[1,2,3]triazol-4-yl)-isoindole-1,3-dione] has an IC50 of 5 to 20 µM.
For `Cc1cc(-c2ccccc2)cc(N2C(=O)c3ccc(-c4c[nH]nn4)cc3C2=O)n1` [Compound 88, 2-(6-Methyl-4-phenylpyridin-2-yl)-5-(1H-[1,2,3]triazol-4-yl)-isoindole-1,3-dione], the IC50 was 5 to 20 µM.
`O=C1c2ccc(-c3c[nH]nn3)cc2C(=O)N1c1ccc(-c2ccccc2)nc1O` [Compound 89, 2-(2-Hydroxy-6-phenylpyridin-3-yl)-5-(1H-[1,2,3]triazol-4-yl)-isoindole-1,3-dione] gave an IC50 of under 20 µM.
For `Cc1cnc(N2C(=O)c3ccc(-c4c[nH]nn4)cc3C2=O)cc1-c1ccc(F)cc1F` [Compound 90, 2-[4-(2,4-Difluoro-phenyl)-5-methyl-pyridin-2-yl]-5-(1H-[1,2,3]triazol-4-yl)-isoindole-1,3-dione], the IC50 was 2 to 5 µM.
For `COC(=O)c1ccc(-c2ccccc2)cc1N1Cc2ccc(-c3c[nH]nn3)cc2C1=O` [Compound 91, 3-[1-Oxo-6-(1H-[1,2,3]triazol-4-yl)-1,3-dihydroisoindol-2-yl]biphenyl-4-carboxylic acid methyl ester], the IC50 was under 20 µM.
Compound `O=C(O)c1ccc(-c2ccccc2)cc1N1Cc2ccc(-c3c[nH]nn3)cc2C1=O` [Compound 92, 3-[1-Oxo-6-(1H-[1,2,3]triazol-4-yl)-1,3-dihydroisoindol-2-yl]biphenyl-4-carboxylic Acid] has an IC50 of 2 to 5 µM.
For `NC(=O)c1ccc(-c2ccccc2)cc1N1C(=O)c2ccc(-c3c[nH]nn3)cc2C1=O` [Compound 93, 3-[1,3-Dioxo-5-(1H-[1,2,3]triazol-4-yl)-1,3-dihydroisoindol-2-yl]biphenyl-4-carboxylic acid amide], the IC50 was 5 to 20 µM.
For `O=C(O)c1cc(-c2ccccc2)ccc1N1C(=O)c2ccc(-c3nnn[nH]3)cc2C1=O` [Compound 94, 4-[1,3-Dioxo-5-(1H-tetrazol-5-yl)-1,3-dihydroisoindol-2-yl]biphenyl-3-carboxylic Acid], the IC50 was under 0.5 µM.
Compound `O=C(O)c1ccc(-c2ccccc2)cc1N1C(=O)c2ccc(-c3nnn[nH]3)cc2C1=O` [Compound 95, 3-[1,3-Dioxo-5-(1H-tetrazol-5-yl)-1,3-dihydroisoindol-2-yl]biphenyl-4-carboxylic Acid] has an IC50 of under 0.5 µM.
Compound `CC(C)OC(=O)c1ccc(-c2ccccc2)cc1N1C(=O)c2ccc(-c3nnn[nH]3)cc2C1=O` [Compound 96, 3-[1,3-Dioxo-5-(1H-tetrazol-5-yl)-1,3-dihydroisoindol-2-yl]biphenyl-4-carboxylic acid isopropyl ester] has an IC50 of 5 to 20 µM.
Compound `CN(C)CCOC(=O)c1ccc(-c2ccccc2)cc1N1C(=O)c2ccc(-c3nnn[nH]3)cc2C1=O` [Compound 97, 3-[1,3-Dioxo-5-(1H-tetrazol-5-yl)-1,3-dihydroisoindol-2-yl]biphenyl-4-carboxylic acid 2-dimethylamino-ethyl ester] has an IC50 of under 0.5 µM.
`NC(=O)c1ccc(-c2ccccc2)cc1N1C(=O)c2ccc(-c3nnn[nH]3)cc2C1=O` [Compound 98, 3-[1,3-Dioxo-5-(1H-tetrazol-5-yl)-1,3-dihydroisoindol-2-yl]biphenyl-4-carboxylic acid amide] was tested, and the IC50 was 2 to 5 µM.
In the case of `COC(=O)c1ccc(-c2ccc(F)c(F)c2)cc1N1Cc2ccc(-c3nnn[nH]3)cc2C1=O` [Compound 99, 3′,4′-Difluoro-3-[1-oxo-6-(1H-tetrazol-5-yl)-1,3-dihydroisoindol-2-yl]biphenyl-4-carboxylic acid methyl ester], the IC50 is reported as 5 to 20 µM.
Compound `O=C(O)c1ccc(-c2ccc(F)c(F)c2)cc1N1Cc2ccc(-c3nnn[nH]3)cc2C1=O` [Compound 100, 3′,4′-Difluoro-3-[1-oxo-6-(1H-tetrazol-5-yl)-1,3-dihydroisoindol-2-yl]biphenyl-4-carboxylic Acid] has an IC50 of 0.5 to 2 µM.
Compound `NC(=O)c1ccc(-c2ccc(F)c(F)c2)cc1N1Cc2ccc(-c3nnn[nH]3)cc2C1=O` [Compound 101, 3′,4′-Difluoro-3-[1-oxo-6-(1H-tetrazol-5-yl)-1,3-dihydroisoindol-2-yl]biphenyl-4-carboxylic acid amide] has an IC50 of 5 to 20 µM.
`COC(=O)c1ccc(-c2ccccc2)cc1N1Cc2ccc(C(=O)O)cc2C1=O` [Compound 102, 2-(4-Methoxycarbonylbiphenyl-3-yl)-3-oxo-2,3-dihydro-1H-isoindole-5-carboxylic Acid] showed an IC50 of under 20 µM.
Work on `COC(=O)c1ccc(-c2ccccc2)cc1N1Cc2ccc(C(=O)NS(C)(=O)=O)cc2C1=O` [Compound 103, 3-(6-Methanesulfonylaminocarbonyl-1-oxo-1,3-dihydroisoindol-2-yl)biphenyl-4-carboxylic acid methyl ester] yielded an IC50 of under 20 µM.

From patent US20230047816A1 (priority 2018, published 2023)
